test system: HCI-001 (organoid from a triple-negative breast cancer xenograft); test: CTG-3D luminescence at 96 h relative to day-0 seeding control (ratio to day 0); higher = more growth / less cytotoxicity; PDxO 3D drug screen, 96 h, CTG-3D normalised to day-0 seeding control.; details: 0.00025 µM; days in culture: 269

Row | SMILES | CTG-3D luminescence at 96 h
1 | COc1cc2c(Oc3ccc4[nH]c(C)cc4c3F)ncnc2cc1OCCCN1CCCC1 [cediranib] | 2.02
2 | CC(C)n1nc(-c2ccc3oc(N)nc3c2)c2c(N)ncnc21 [sapanisertib] | 1.79
3 | Cc1cc(Nc2ncnc3ccc(NC4=NC(C)(C)CO4)cc23)ccc1Oc1ccn2ncnc2c1 [tucatinib] | 1.49
4 | C[C@H](NC(=O)CCC(F)(F)F)C(=O)N[C@@H]1C(=O)N(CCO)c2ncccc2-c2ccccc21 [crenigacestat] | 1.6
5 | C[C@]12CC[C@@H]3c4ccc(O)cc4C[C@@H](CCCCCCCCC[S+]([O-])CCCC(F)(F)C(F)(F)F)[C@H]3[C@@H]1CC[C@@H]2O (some centres not stated) [fulvestrant] | 1.59
6 | O=C(c1ccc(F)c(F)c1Nc1ccc(I)cc1F)N1CC(O)([C@@H]2CCCCN2)C1 [cobimetinib] | 1.58
7 | O=C(/C=C/c1cccnc1)NCCCCC1CCN(C(=O)c2ccccc2)CC1 [FK866] | 1.61
8 | CS(=O)(=O)c1ccc(C(=O)Nc2ccc(Cl)c(-c3ccccn3)c2)c(Cl)c1 [vismodegib] | 1.89
9 | C=CCn1c(=O)c2cnc(Nc3ccc(N4CCN(C)CC4)cc3)nc2n1-c1cccc(C(C)(C)O)n1 [adavosertib] | 1.7

same assay, conditions: 0.00025 µM; days in culture: 327

Row | SMILES | CTG-3D luminescence at 96 h
10 | COc1cc2c(Oc3ccc4[nH]c(C)cc4c3F)ncnc2cc1OCCCN1CCCC1 [cediranib] | 1.34
11 | CC(C)n1nc(-c2ccc3oc(N)nc3c2)c2c(N)ncnc21 [sapanisertib] | 0.761
12 | Cc1cc(Nc2ncnc3ccc(NC4=NC(C)(C)CO4)cc23)ccc1Oc1ccn2ncnc2c1 [tucatinib] | 1.6
13 | C[C@H](NC(=O)CCC(F)(F)F)C(=O)N[C@@H]1C(=O)N(CCO)c2ncccc2-c2ccccc21 [crenigacestat] | 1.4
14 | C[C@]12CC[C@@H]3c4ccc(O)cc4C[C@@H](CCCCCCCCC[S+]([O-])CCCC(F)(F)C(F)(F)F)[C@H]3[C@@H]1CC[C@@H]2O (some centres not stated) [fulvestrant] | 1.68
15 | O=C(c1ccc(F)c(F)c1Nc1ccc(I)cc1F)N1CC(O)([C@@H]2CCCCN2)C1 [cobimetinib] | 1.44
16 | O=C(/C=C/c1cccnc1)NCCCCC1CCN(C(=O)c2ccccc2)CC1 [FK866] | 0.495
17 | CS(=O)(=O)c1ccc(C(=O)Nc2ccc(Cl)c(-c3ccccn3)c2)c(Cl)c1 [vismodegib] | 1.61
18 | C=CCn1c(=O)c2cnc(Nc3ccc(N4CCN(C)CC4)cc3)nc2n1-c1cccc(C(C)(C)O)n1 [adavosertib] | 1.49

same assay, conditions: 0.00025 µM; days in culture: 346

Row | SMILES | CTG-3D luminescence at 96 h
19 | COc1cc2c(Oc3ccc4[nH]c(C)cc4c3F)ncnc2cc1OCCCN1CCCC1 [cediranib] | 1.18
20 | CC(C)n1nc(-c2ccc3oc(N)nc3c2)c2c(N)ncnc21 [sapanisertib] | 1.32
21 | Cc1cc(Nc2ncnc3ccc(NC4=NC(C)(C)CO4)cc23)ccc1Oc1ccn2ncnc2c1 [tucatinib] | 1.22
22 | C[C@H](NC(=O)CCC(F)(F)F)C(=O)N[C@@H]1C(=O)N(CCO)c2ncccc2-c2ccccc21 [crenigacestat] | 1.2
23 | C[C@]12CC[C@@H]3c4ccc(O)cc4C[C@@H](CCCCCCCCC[S+]([O-])CCCC(F)(F)C(F)(F)F)[C@H]3[C@@H]1CC[C@@H]2O (some centres not stated) [fulvestrant] | 1.3
24 | O=C(c1ccc(F)c(F)c1Nc1ccc(I)cc1F)N1CC(O)([C@@H]2CCCCN2)C1 [cobimetinib] | 1.22
25 | O=C(/C=C/c1cccnc1)NCCCCC1CCN(C(=O)c2ccccc2)CC1 [FK866] | 1.28
26 | CS(=O)(=O)c1ccc(C(=O)Nc2ccc(Cl)c(-c3ccccn3)c2)c(Cl)c1 [vismodegib] | 1.38
27 | C=CCn1c(=O)c2cnc(Nc3ccc(N4CCN(C)CC4)cc3)nc2n1-c1cccc(C(C)(C)O)n1 [adavosertib] | 1.34

same assay, conditions: 0.00025 µM; days in culture: 364

Row | SMILES | CTG-3D luminescence at 96 h
28 | COc1cc2c(Oc3ccc4[nH]c(C)cc4c3F)ncnc2cc1OCCCN1CCCC1 [cediranib] | 1.06
29 | CC(C)n1nc(-c2ccc3oc(N)nc3c2)c2c(N)ncnc21 [sapanisertib] | 1.12
30 | Cc1cc(Nc2ncnc3ccc(NC4=NC(C)(C)CO4)cc23)ccc1Oc1ccn2ncnc2c1 [tucatinib] | 1.19
31 | C[C@H](NC(=O)CCC(F)(F)F)C(=O)N[C@@H]1C(=O)N(CCO)c2ncccc2-c2ccccc21 [crenigacestat] | 1.08
32 | C[C@]12CC[C@@H]3c4ccc(O)cc4C[C@@H](CCCCCCCCC[S+]([O-])CCCC(F)(F)C(F)(F)F)[C@H]3[C@@H]1CC[C@@H]2O (some centres not stated) [fulvestrant] | 1.34
33 | O=C(c1ccc(F)c(F)c1Nc1ccc(I)cc1F)N1CC(O)([C@@H]2CCCCN2)C1 [cobimetinib] | 1.27
34 | O=C(/C=C/c1cccnc1)NCCCCC1CCN(C(=O)c2ccccc2)CC1 [FK866] | 1.03
35 | CS(=O)(=O)c1ccc(C(=O)Nc2ccc(Cl)c(-c3ccccn3)c2)c(Cl)c1 [vismodegib] | 1.26
36 | C=CCn1c(=O)c2cnc(Nc3ccc(N4CCN(C)CC4)cc3)nc2n1-c1cccc(C(C)(C)O)n1 [adavosertib] | 1.15

same assay, conditions: 0.005 µM; days in culture: 240

Row | SMILES | CTG-3D luminescence at 96 h
37 | COc1cc2c(Oc3ccc4[nH]c(C)cc4c3F)ncnc2cc1OCCCN1CCCC1 [cediranib] | 1.16
38 | CC(C)n1nc(-c2ccc3oc(N)nc3c2)c2c(N)ncnc21 [sapanisertib] | 0.588
39 | Cc1cc(Nc2ncnc3ccc(NC4=NC(C)(C)CO4)cc23)ccc1Oc1ccn2ncnc2c1 [tucatinib] | 0.65
40 | C[C@H](NC(=O)CCC(F)(F)F)C(=O)N[C@@H]1C(=O)N(CCO)c2ncccc2-c2ccccc21 [crenigacestat] | 1.03
41 | C[C@]12CC[C@@H]3c4ccc(O)cc4C[C@@H](CCCCCCCCC[S+]([O-])CCCC(F)(F)C(F)(F)F)[C@H]3[C@@H]1CC[C@@H]2O (some centres not stated) [fulvestrant] | 1.03
42 | O=C(c1ccc(F)c(F)c1Nc1ccc(I)cc1F)N1CC(O)([C@@H]2CCCCN2)C1 [cobimetinib] | 1.09
43 | O=C(/C=C/c1cccnc1)NCCCCC1CCN(C(=O)c2ccccc2)CC1 [FK866] | 0.813
44 | CS(=O)(=O)c1ccc(C(=O)Nc2ccc(Cl)c(-c3ccccn3)c2)c(Cl)c1 [vismodegib] | 0.998
45 | C=CCn1c(=O)c2cnc(Nc3ccc(N4CCN(C)CC4)cc3)nc2n1-c1cccc(C(C)(C)O)n1 [adavosertib] | 1.22

same assay, conditions: 0.005 µM; days in culture: 260

Row | SMILES | CTG-3D luminescence at 96 h
46 | COc1cc2c(Oc3ccc4[nH]c(C)cc4c3F)ncnc2cc1OCCCN1CCCC1 [cediranib] | 1.79
47 | CC(C)n1nc(-c2ccc3oc(N)nc3c2)c2c(N)ncnc21 [sapanisertib] | 1.61
48 | Cc1cc(Nc2ncnc3ccc(NC4=NC(C)(C)CO4)cc23)ccc1Oc1ccn2ncnc2c1 [tucatinib] | 1.22
49 | C[C@H](NC(=O)CCC(F)(F)F)C(=O)N[C@@H]1C(=O)N(CCO)c2ncccc2-c2ccccc21 [crenigacestat] | 1.52
50 | C[C@]12CC[C@@H]3c4ccc(O)cc4C[C@@H](CCCCCCCCC[S+]([O-])CCCC(F)(F)C(F)(F)F)[C@H]3[C@@H]1CC[C@@H]2O (some centres not stated) [fulvestrant] | 1.9
51 | O=C(c1ccc(F)c(F)c1Nc1ccc(I)cc1F)N1CC(O)([C@@H]2CCCCN2)C1 [cobimetinib] | 1.46
52 | O=C(/C=C/c1cccnc1)NCCCCC1CCN(C(=O)c2ccccc2)CC1 [FK866] | 0.497
53 | CS(=O)(=O)c1ccc(C(=O)Nc2ccc(Cl)c(-c3ccccn3)c2)c(Cl)c1 [vismodegib] | 2.27
54 | C=CCn1c(=O)c2cnc(Nc3ccc(N4CCN(C)CC4)cc3)nc2n1-c1cccc(C(C)(C)O)n1 [adavosertib] | 2.32

same assay, conditions: 0.005 µM; days in culture: 269

Row | SMILES | CTG-3D luminescence at 96 h
55 | COc1cc2c(Oc3ccc4[nH]c(C)cc4c3F)ncnc2cc1OCCCN1CCCC1 [cediranib] | 1.64
56 | CC(C)n1nc(-c2ccc3oc(N)nc3c2)c2c(N)ncnc21 [sapanisertib] | 1.19
57 | Cc1cc(Nc2ncnc3ccc(NC4=NC(C)(C)CO4)cc23)ccc1Oc1ccn2ncnc2c1 [tucatinib] | 1.39
58 | C[C@H](NC(=O)CCC(F)(F)F)C(=O)N[C@@H]1C(=O)N(CCO)c2ncccc2-c2ccccc21 [crenigacestat] | 1.37
59 | C[C@]12CC[C@@H]3c4ccc(O)cc4C[C@@H](CCCCCCCCC[S+]([O-])CCCC(F)(F)C(F)(F)F)[C@H]3[C@@H]1CC[C@@H]2O (some centres not stated) [fulvestrant] | 1.41
60 | O=C(c1ccc(F)c(F)c1Nc1ccc(I)cc1F)N1CC(O)([C@@H]2CCCCN2)C1 [cobimetinib] | 1.56
61 | O=C(/C=C/c1cccnc1)NCCCCC1CCN(C(=O)c2ccccc2)CC1 [FK866] | 1.1
62 | CS(=O)(=O)c1ccc(C(=O)Nc2ccc(Cl)c(-c3ccccn3)c2)c(Cl)c1 [vismodegib] | 1.55
63 | C=CCn1c(=O)c2cnc(Nc3ccc(N4CCN(C)CC4)cc3)nc2n1-c1cccc(C(C)(C)O)n1 [adavosertib] | 1.59

same assay, conditions: 0.005 µM; days in culture: 327

Row | SMILES | CTG-3D luminescence at 96 h
64 | COc1cc2c(Oc3ccc4[nH]c(C)cc4c3F)ncnc2cc1OCCCN1CCCC1 [cediranib] | 1.78
65 | CC(C)n1nc(-c2ccc3oc(N)nc3c2)c2c(N)ncnc21 [sapanisertib] | 1.33
66 | Cc1cc(Nc2ncnc3ccc(NC4=NC(C)(C)CO4)cc23)ccc1Oc1ccn2ncnc2c1 [tucatinib] | 1.87
67 | C[C@H](NC(=O)CCC(F)(F)F)C(=O)N[C@@H]1C(=O)N(CCO)c2ncccc2-c2ccccc21 [crenigacestat] | 1.63
68 | C[C@]12CC[C@@H]3c4ccc(O)cc4C[C@@H](CCCCCCCCC[S+]([O-])CCCC(F)(F)C(F)(F)F)[C@H]3[C@@H]1CC[C@@H]2O (some centres not stated) [fulvestrant] | 2.18
69 | O=C(c1ccc(F)c(F)c1Nc1ccc(I)cc1F)N1CC(O)([C@@H]2CCCCN2)C1 [cobimetinib] | 1.72
70 | O=C(/C=C/c1cccnc1)NCCCCC1CCN(C(=O)c2ccccc2)CC1 [FK866] | 0.617
71 | CS(=O)(=O)c1ccc(C(=O)Nc2ccc(Cl)c(-c3ccccn3)c2)c(Cl)c1 [vismodegib] | 2.29
72 | C=CCn1c(=O)c2cnc(Nc3ccc(N4CCN(C)CC4)cc3)nc2n1-c1cccc(C(C)(C)O)n1 [adavosertib] | 1.68
